Test results reported in patent publication US3962269A, “1,3-Propandiol intermediates” (Eli Lilly and Company, priority 1975, dated 1976).
Where a name gives a salt, the structure may show the parent alone.

Assays:
[1] = analgesic activity, general statements; format: in vivo; settings: in words
[2] = rat tail jerk assay, analgesic activity; format: in vivo, rat (Sprague-Dawley females); settings: for ED50: dose giving significant peak analgesic effect in 50 percent of test animals; for PT (peak analgesic time), Rat Tail Jerk, Oral / PT (peak analgesic time), Rat Tail Jerk, Subcutaneous: time after dosing of maximum analgesic response
Source text: The other analgesic method was the rat tail jerk assay described by Robbins, J. Amer. Pharm. Assoc. Sci. Ed., 44, 497 (1955). The rats were Sprague-Dawley females weighing 70-90 g. Briefly, the tail was held on a temperature controlled tail rest near a nichrome resistance wire through which a current could flow. A switch used to start the flow of current to heat the wire simultaneously started a timer. When a jerk of the tail was detected by the operator, the switch was released and the latency of the response was recorded as the "reaction time." The tail was placed near the hot wire stimulus for a maximum duration of 30 seconds. Twenty rats were tested as a group in a randomized order. At least five rats were used for each treatment and each rat was dosed and tested only once.
(§1) Table 1 below gives the results of testing representative compounds of this invention as analgesics by the above methods. The first four columns in Table 1 describe the particular compound tested. The next eight columns give the mouse writhing results and the rat tail jerk results both by oral and subcutaneous administration. The columns headed PT ("Peak Analgesic Time") give the time in minutes after dosing at which the maximum analgesic responses are measured. The columns headed "ED50 (mg./kg.)" give the doses (ED50) in milligrams per kilogram (mg./kg.) of body weight that produce a significant peak analgesic effect in 50 percent of test animals.

[3] = mouse writhing assay (acetic acid), analgesic activity; format: in vivo, mouse (Cox standard males); settings: for ED50 / PT (peak analgesic time), Mouse Writhing, Oral / PT (peak analgesic time), Mouse Writhing, Subcutaneous: mouse; for ED50: dose giving significant peak analgesic effect in 50 percent of test animals; for PT (peak analgesic time), Mouse Writhing, Oral / PT (peak analgesic time), Mouse Writhing, Subcutaneous: time after dosing of maximum analgesic response
Method: Analgesic activity for representative compounds of the instant invention was determined with two standard animal techniques. The mouse writhing assay used was a modification of the method wherein frequency of writhing [Hendershot and Sorsaith, J. Pharm. Exp. Ther. 125, 237 (1959)] is observed after intra peritoneal administration of 0.6 percent acetic acid [Koster et al., Fed. Proc. Soc. Expt. Biol. 18, 412 (1959)]. The mice were Cox standard males weighting 20-22 gm. The number of writhes was determined for each of five mice during the period 5-15 minutes after acetic acid treatment. The percent inhibition due to drug treatment was determined by comparison with control mice.
as §1

[4] = cited from earlier work
[5] = oral, read-out: ED50, Rat Tail Jerk, Oral
[6] = sc, subcutaneous, read-out: ED50, Rat Tail Jerk, Subcutaneous
[7] = oral, read-out: ED50, Mouse Writhing, Oral
[8] = sc, subcutaneous, read-out: ED50, Mouse Writhing, Subcutaneous

Compound | analgesic activity [1] | ED50 [2, 5] [mg/kg] | PT (peak analgesic time), Rat Tail Jerk, Oral ([2]; oral) [min] | ED50 [2, 6] [mg/kg] | PT (peak analgesic time), Rat Tail Jerk, Subcutaneous ([2]; subcutaneous) [min] | ED50 [3, 7] [mg/kg] | PT (peak analgesic time), Mouse Writhing, Oral ([3]; oral) [min] | PT (peak analgesic time), Mouse Writhing, Subcutaneous ([3]; subcutaneous) [min] | ED50 [3, 8] [mg/kg] | analgesic activity (literature) [4] | side effects (literature) [4] | duration of analgesic action in mice ([3]; mice)
CN(C)C(c1ccccc1)C1COCOC1 (single isomer, unassigned) [1-N,N-dimethyl-α-phenyl-m-dioxane-5-methylamine] | analgesically active | – | – | – | – | – | – | – | – | – | – | –
CN(C)C(c1ccccc1)C1COCOC1 (single isomer, unassigned) [l C6 H5, H, HCl, l-N,N-dimethyl-α-phenyl-m-dioxane-5-methylamine hydrochloride] | – | 10 to 20 | 15 | 7 | 15 | 16 | 15 | 15 | 6 | – | – | –
c1ccc(C2(c3ccccc3)OC[C@H]([C@@H]3CCCCN3)O2)cc1 [Dexoxadrol, d-2,2-diphenyl-4-(2-piperdyl)-1,3-dioxolane hydrochloride] | – | – | – | – | – | – | – | – | – | mild analgesic | high incidence of psychotomimetic side effects | –
CC1OCC(CN(C)C)O1 (stereo not drawn) [N,N,2-Trimethyl-1,3-dioxolane-4-methylamine] | – | – | – | – | – | – | – | – | – | mild analgesic | cholinergic side effects | –
CN(C)C(c1cccnc1)C1COCOC1.Cl.Cl (stereo not drawn) [dl 3-pyridyl, H, 2HCl, N,N-dimethyl-α-(3-pyridyl)-m-dioxane-5-methylamine dihydrochloride] | – | 7 | 15 | 7 | 15 | 25 | 30 | 30 | 10 | – | – | –
Cc1ccc(C(C2COCOC2)N(C)C)cc1.O=C(O)/C=C\C(=O)O (stereo not drawn) [dl 4-CH3 --C6 H4, H, Maleate, N,N-dimethyl-α-(4-methylphenyl)-m-dioxane-5-methylamine maleate] | – | 60 | 45 | 8 | 30 | 110 | 45 | 30 | 20 | – | – | –
CCC1OCC(C(c2ccccc2)N(C)C)CO1 (stereo not drawn) [dl C6 H5, C2 H5, N,N-dimethyl-2-ethyl-α-phenyl-m-dioxane-5-methylamine] | – | 21 | 15 | 3.4 | 15 | 23 | 75 | 75 | 19 | – | – | long acting in mice
CC1OCC(C(c2ccccc2)N(C)C)CO1 (stereo not drawn) [dl C6 H5, CH3, N,N,2-Trimethyl-α-phenyl-m-dioxane-5-methylamine] | – | 12 | 15 | 2.8 | 20 | 19 | 15 | 15 | 3.6 | – | – | –
CN(C)C(c1ccccc1)C1COCOC1.Cl (stereo not drawn) [dl C6 H5, H, HCl, N,N-dimethyl-α-phenyl-m-dioxane-5-methylamine hydrochloride] | – | 27 | 15 | 4.5 | 15 | 28 | 45 | 15 | 15 | – | – | –
